From EPA's ToxRefDB 2

What was measured:
rat [1] = conditions: Prenatal developmental toxicity study; wistar; Oral; Feed; dose end: 20 GD; group: maternal; systemic / in life observation / body weight / body weight gain
rat [2] = conditions: Subchronic oral toxicity in rodents, fischer, Water, dose end: 13 week, group: systemic
rat [3] = conditions: Fertility (Segment I); sprague dawley; Oral; Gavage/Intubation; dose end: 13 PND; group: offspring; systemic / in life observation / body weight / offspring (pup) weight
rabbit [4] = conditions: Prenatal developmental toxicity study, new zealand white, Dermal, Topical, dose end: 18 GD, group: maternal
mouse [5] = conditions: Combined chronic toxicity/carcinogenicity, b6c3f1, Oral, Gavage/Intubation, dose end: 2 year, group: systemic
rat [6] = conditions: Combined chronic toxicity/carcinogenicity; sprague dawley; Oral; Gavage/Intubation; dose end: 24 month; group: systemic; systemic / hematology / erythrocyte (rbc) count differential / erythrocyte (rbc) + systemic / hematology / hemoglobin (hgb) / hemoglobin (…
mouse [7] = conditions: Subchronic oral toxicity in rodents, b6c3f1, Gavage/Intubation, dose end: 13 week, group: systemic
mouse [8] = conditions: Carcinogenicity; cd1; Oral; Feed; dose end: 18 month; group: systemic; systemic / in life observation / body weight / body weight + systemic / in life observation / body weight / body weight gain
dog [9] = conditions: Chronic toxicity; beagle; Oral; Gavage/Intubation; dose end: 52 week; group: systemic; systemic / clinical chemistry / cholesterol / cholesterol + systemic / clinical chemistry / triglycerides / triglycerides + systemic / in …
rat [10] = conditions: Combined chronic toxicity/carcinogenicity, sprague dawley, Oral, Feed, dose end: 104 week, group: systemic
rat [11] = conditions: Subchronic oral toxicity in rodents, sprague dawley, Feed, dose end: 90 day, group: systemic
mouse [12] = conditions: Subchronic oral toxicity in rodents, cd1, Feed, dose end: 13 week, group: systemic, systemic / hematology / leukocyte (wbc) count differential / leukocyte (wbc) + systemic / hematology / lymphocyte / lymphocyte + systemic / …
dog [13] = conditions: Chronic toxicity, beagle, Oral, Feed, dose end: 60 week, group: cholinesterase
rat [14] = conditions: Combined chronic toxicity/carcinogenicity, sprague dawley, Oral, Feed, dose end: 24 month, group: systemic
mouse [15] = conditions: Carcinogenicity, cd1, Oral, Feed, dose end: 18 month
rat [16] = conditions: Prenatal developmental toxicity study, sprague dawley, Oral, Gavage/Intubation, dose end: 15 GD
rat [17] = conditions: Combined chronic toxicity/carcinogenicity; fischer; Inhalation; Whole-Body; dose end: 105 week; group: systemic; systemic / pathology microscopic / nose / atrophy + systemic / pathology microscopic / nose / inflammation + systemic / pathology …
rat [18] = conditions: Prenatal developmental toxicity study, sprague dawley, Oral, Gavage/Intubation, dose end: 19 GD
rat [19] = conditions: Combined chronic toxicity/carcinogenicity; fischer; Oral; Gavage/Intubation; dose end: 2 year; group: systemic; systemic / in life observation / body weight / body weight + systemic / in life observation / clinical signs / [other] + systemic / in life …
rat [20] = conditions: Subchronic oral toxicity in rodents, fischer, Gavage/Intubation, dose end: 13 week, group: systemic
rat [21] = conditions: Prenatal developmental toxicity study, sprague dawley, Oral, Gavage/Intubation, dose end: 15 GD; remark: listed apart in the source
rabbit [22] = conditions: Prenatal developmental toxicity study, new zealand white, Oral, Gavage/Intubation, dose end: 18 GD, group: maternal
[23] = systemic / clinical chemistry / aspartate aminotransferase (ast/sgot) / aspartate aminotransferase (ast/sgot) + systemic / clinical …
[24] = systemic / in life observation / clinical signs / desquamation + systemic / in life observation / clinical signs / erythema + systemic / …
[25] = systemic / hematology / methemoglobin / methemoglobin + systemic / hematology / reticulocyte / reticulocyte + systemic / pathology …
[26] = systemic / pathology microscopic / bone marrow / hypercellularity
[27] = systemic / hematology / reticulocyte / reticulocyte + systemic / organ weight / spleen / absolute + systemic / organ weight / spleen / …
[28] = systemic / organ weight / liver / relative to body weight + systemic / clinical chemistry / cholesterol / cholesterol + systemic / organ …
[29] = systemic / organ weight / testes / relative to body weight
[30] = systemic / organ weight / liver / absolute + systemic / organ weight / liver / relative to body weight + systemic / organ weight / heart / …
[31] = cholinesterase / cholinesterase / cholinesterase / erythrocyte cholinesterase (che) + cholinesterase / cholinesterase / cholinesterase / …
[32] = cholinesterase / cholinesterase / cholinesterase / plasma cholinesterase (che)
[33] = systemic / in life observation / body weight / body weight + systemic / in life observation / body weight / body weight gain + systemic / …
[34] = group: cholinesterase, cholinesterase / cholinesterase / cholinesterase / brain cholinesterase (che) + cholinesterase / cholinesterase / cholinesterase / …
[35] = group: systemic, systemic / in life observation / body weight / body weight gain + systemic / in life observation / food consumption / food consumption + …
[36] = group: developmental, developmental / developmental malformation / brain / dilated cerebral ventricle
[37] = group: maternal, systemic / in life observation / clinical signs / altered breathing rate + systemic / in life observation / clinical signs / lethargy + …
[38] = group: developmental, systemic / in life observation / body weight / fetal weight
[39] = group: maternal, systemic / in life observation / body weight / body weight + systemic / in life observation / body weight / body weight gain + systemic / in…
[40] = systemic / organ weight / liver / relative to body weight
[41] = group: developmental, developmental / developmental malformation / bone / incomplete ossification + developmental / developmental malformation / bone / unossified
[42] = group: maternal, systemic / in life observation / clinical signs / salivation + systemic / in life observation / mortality / mortality + systemic / in life …
[43] = reproductive / reproductive performance / implantations / implantations + systemic / in life observation / body weight / body weight gain + …

For `CCCCOCCOCCO` [2-(2-Butoxyethoxy)ethanol], the LEL (rat [1]) was 25 mg/kg/day, the LOAEL (rat [1]) was > 633 mg/kg/day and the NEL (rat [1]) was < 25 mg/kg/day. For the same molecule, the NOAEL (rat [1]) was ≥ 633 mg/kg/day, the LOAEL (rat [2]; [23]) was > 1000 mg/kg/day and the NEL (rat [2]; [23]) was 50 mg/kg/day. The NOAEL (rat [2]; [23]) was ≥ 1000 mg/kg/day, the LEL (rat [2]; systemic / hematology / erythrocyte (rbc) count differential / erythrocyte (rbc) + systemic / hematology / hematocrit (hct) / hematocrit (…) was 250 mg/kg/day and the LEL (rat [3]) was 1000 mg/kg/day. For the same molecule, the LOAEL (rat [3]) was > 1000 mg/kg/day, the NEL (rat [3]) was 500 mg/kg/day and the NOAEL (rat [3]) was ≥ 1000 mg/kg/day. The LEL (rabbit [4]; systemic / in life observation / clinical signs / desquamation + systemic / in life observation / clinical signs / erythema) was 300 mg/kg/day, the LOAEL (rabbit [4]; [24]) was > 1000 mg/kg/day and the NEL (rabbit [4]; [24]) was 100 mg/kg/day. For the same molecule, the NOAEL (rabbit [4]; [24]) was ≥ 1000 mg/kg/day.

Molecule `Nc1ccc([N+](=O)[O-])cc1` [4-Nitroaniline] has an LOAEL (mouse [5]; [25]) of 30 mg/kg/day, an NOAEL (mouse [5]; [25]) of 3 mg/kg/day and an LEL (mouse [5]; [26]) of 3 mg/kg/day. For the same molecule, the NEL (mouse [5]; [26]) was < 3 mg/kg/day, the LEL (rat [6]) was 1.5 mg/kg/day and the LOAEL (rat [6]) was > 9 mg/kg/day. The NEL (rat [6]) was 0.25 mg/kg/day, the NOAEL (rat [6]) was ≥ 9 mg/kg/day and the LOAEL (mouse [7]; [27]) was 30 mg/kg/day. It also gave an NEL (mouse [7]; [27]) of 3 mg/kg/day, an NOAEL (mouse [7]; [27]) of 10 mg/kg/day and an LEL (mouse [7]; systemic / pathology microscopic / spleen / hematopoietic cell proliferation + systemic / organ weight / liver / relative to body weight + …) of 10 mg/kg/day.

With `O=C(NC(=O)c1c(F)cccc1F)Nc1ccc(CON=C(c2ccc(Cl)cc2)C2CC2)cc1` [Flucycloxuron] the LEL (mouse [8]) was 73 mg/kg/day, the LOAEL (mouse [8]) was 73 mg/kg/day and the NEL (mouse [8]) was 5.3 mg/kg/day. For the same molecule, the NOAEL (mouse [8]) was 5.3 mg/kg/day, the LEL (dog [9]) was 10 mg/kg/day and the LOAEL (dog [9]) was 10 mg/kg/day. The NEL (dog [9]) was < 10 mg/kg/day, the NOAEL (dog [9]) was < 10 mg/kg/day and the LOAEL (rat [10]; [28]) was > 7000 mg/kg/day. For the same molecule, the NOAEL (rat [10]; [28]) was ≥ 7000 mg/kg/day, the LEL (rat [10]; [29]) was 120 mg/kg/day and the NEL (rat [10]; [29]) was < 120 mg/kg/day. The LEL (rat [11]; [30]) was 200 mg/kg/day, the NEL (rat [11]; [30]) was < 200 mg/kg/day and the NOAEL (rat [11]; systemic / pathology microscopic / liver / necrosis + systemic / pathology microscopic / spleen / pigmentation + systemic / clinical …) was 200 mg/kg/day. It also gave an LOAEL (rat [11]; systemic / pathology microscopic / liver / necrosis + systemic / pathology microscopic / spleen / pigmentation + systemic / organ weight / …) of 2000 mg/kg/day.

`COc1cc(OC)nc(NC(=O)NS(=O)(=O)c2cc(NC=O)ccc2C(=O)N(C)C)n1` [Foramsulfuron] was tested, and the LEL (mouse [12]) was 1000 mg/kg/day, the LOAEL (mouse [12]) was > 1000 mg/kg/day and the NEL (mouse [12]) was 498 mg/kg/day. For the same molecule, the NOAEL (mouse [12]) was ≥ 1000 mg/kg/day.

`CCOP(=S)(OCC)Oc1nc(Cl)n(C(C)C)n1` [Isazofos] was tested, and the LOAEL (dog [13]; [31]) was > 1.61 mg/kg/day, the NOAEL (dog [13]; [31]) was ≥ 1.61 mg/kg/day and the LEL (dog [13]; [32]) was 0.0015 mg/kg/day. The NEL (dog [13]; [32]) was < 0.0015 mg/kg/day, the LOAEL (rat [14]; systemic / in life observation / body weight / body weight + systemic / in life observation / body weight / body weight gain) was 10 mg/kg/day and the LEL (rat [14]; [33]) was 10 mg/kg/day. It also gave an NEL (rat [14]; [33]) of 0.05 mg/kg/day, an NOAEL (rat [14]; [33]) of 0.05 mg/kg/day and an LEL (mouse [15]; [34]) of 4.5 mg/kg/day. For the same molecule, the LOAEL (mouse [15]; [34]) was 4.5 mg/kg/day, the NEL (mouse [15]; [34]) was 0.15 mg/kg/day and the NOAEL (mouse [15]; [34]) was 0.15 mg/kg/day. For the same molecule, the LEL (mouse [15]; [35]) was 37.5 mg/kg/day, the LOAEL (mouse [15]; [35]) was 37.5 mg/kg/day and the NEL (mouse [15]; [35]) was 4.5 mg/kg/day. The NOAEL (mouse [15]; [35]) was 4.5 mg/kg/day.

With `c1ccc2ccccc2c1` [Naphthalene] the LEL (rat [16]; [36]) was 450 mg/kg/day, the LOAEL (rat [16]; [36]) was > 450 mg/kg/day and the NEL (rat [16]; [36]) was 150 mg/kg/day. For the same molecule, the NOAEL (rat [16]; [36]) was ≥ 450 mg/kg/day, the LEL (rat [16]; [37]) was 50 mg/kg/day and the LOAEL (rat [16]; [37]) was 50 mg/kg/day. For the same molecule, the NEL (rat [16]; [37]) was < 50 mg/kg/day, the NOAEL (rat [16]; [37]) was < 50 mg/kg/day and the LEL (rat [17]) was 3.6 mg/kg/day. For the same molecule, the LOAEL (rat [17]) was 3.6 mg/kg/day, the NEL (rat [17]) was < 3.6 mg/kg/day and the NOAEL (rat [17]) was < 3.6 mg/kg/day.

For `[N-]=[N+]=[N-].[Na+]` [Sodium azide], the LEL (rat [18]; [38]) was 17.5 mg/kg/day, the LOAEL (rat [18]; [38]) was > 17.5 mg/kg/day and the NEL (rat [18]; [38]) was 5 mg/kg/day. The NOAEL (rat [18]; [38]) was ≥ 17.5 mg/kg/day, the LEL (rat [18]; [39]) was 17.5 mg/kg/day and the LOAEL (rat [18]; [39]) was > 17.5 mg/kg/day. The NEL (rat [18]; [39]) was 5 mg/kg/day, the NOAEL (rat [18]; [39]) was ≥ 17.5 mg/kg/day and the LEL (rat [19]) was 10 mg/kg/day. It also gave an LOAEL (rat [19]) of 10 mg/kg/day, an NEL (rat [19]) of 5 mg/kg/day and an NOAEL (rat [19]) of 5 mg/kg/day. For the same molecule, the LOAEL (rat [20]; systemic / in life observation / body weight / body weight gain + systemic / in life observation / clinical signs / hunched posture) was 10 mg/kg/day, the NOAEL (rat [20]; systemic / in life observation / body weight / body weight gain + systemic / in life observation / clinical signs / hunched posture + …) was 5 mg/kg/day and the LEL (rat [20]; [40]) was 1.25 mg/kg/day. For the same molecule, the NEL (rat [20]; [40]) was < 1.25 mg/kg/day.

`CCN(CC)CC.O=C(O)COc1nc(Cl)c(Cl)cc1Cl` [Triclopyr triethylamine salt] was tested, and the LEL (rat [21]; [41]) was 300 mg/kg/day, the LOAEL (rat [21]; [41]) was 300 mg/kg/day and the NEL (rat [21]; [41]) was 100 mg/kg/day. The NOAEL (rat [21]; [41]) was 100 mg/kg/day, the LOAEL (rat [21]; group: maternal, systemic / in life observation / clinical signs / salivation + systemic / in life observation / mortality / mortality) was 300 mg/kg/day and the NEL (rat [21]; [42]) was 30 mg/kg/day. For the same molecule, the NOAEL (rat [21]; [42]) was 100 mg/kg/day, the LEL (rat [21]; group: maternal, systemic / in life observation / water consumption / water consumption) was 100 mg/kg/day and the LOAEL (rabbit [22]; [43]) was 100 mg/kg/day. The NEL (rabbit [22]; [43]) was 10 mg/kg/day, the NOAEL (rabbit [22]; [43]) was 30 mg/kg/day and the LEL (rabbit [22]; reproductive / reproductive performance / preimplantation loss / preimplantation loss) was 30 mg/kg/day.
